# Test results from ChEMBL document CHEMBL4808244, “Design, synthesis and anti-fibrosis evaluation of imidazo[1,2-a]pyridine derivatives as potent ATX inhibitors” (Bioorg Med Chem, 2021).
# Calls of active or inactive are those of the source. The calls are words filed in the database; no cut-off is given here.
# System: Mus musculus
# Test: Antifibrotic activity in C57BL/6J mouse model of bleomycin-induced idiopathic pulmonary fibrosis assessed as inhibition of changes in lung textures at 30-60 mg/kg, po dosed for 31 consecutive days followed by tracheal administration of bleomycin by masson's staining based histopathological analysis
# Assay type: functional, organism-based
# Details: time 31.0 day
row,SMILES,inhibition
1,CCc1nc2c(C)cc(N3CCN(CC(=O)N4CC(O)C4)CC3)cn2c1N(C)c1nc(-c2ccc(F)cc2)c(C#N)s1,Active
2,CCc1nc2c(C)cc(-c3ccc(CN4CCC(O)CC4)cc3)cn2c1NC(=O)NCc1ccc(F)cc1,Active

# System: Mus musculus
# Test: Antifibrotic activity in C57BL/6 mouse model of bleomycin-induced idiopathic pulmonary fibrosis assessed as survival rate at 30-60 mg/kg, po dosed for 31 consecutive days followed by tracheal administration of bleomycin relative to control
# Assay type: functional
# Details: C57BL/6, po, 744 h, time 31 day
row,SMILES,survival at 60 mg/kg [%]
1,CCc1nc2c(C)cc(-c3ccc(CN4CCC(O)CC4)cc3)cn2c1NC(=O)NCc1ccc(F)cc1,100

# Molecular target: Autotaxin (Homo sapiens, UniProt Q13822)
# Test: Inhibition of human ATX using FS-3 as substrate preincubated for 45 mins followed by substrate addition and measured every 1 min for 30 mins by fluorescence microplate reader assay
# Details: not given
row,SMILES,IC50 [nM]
1,CCc1nc2c(C)cc(-c3ccc(CN4CCC[C@H]4CO)cc3)cn2c1NC(=O)NCc1ccc(OC)c(Cl)c1,497
2,CCc1nc2c(C)cc(-c3ccc(CN4CCN(CC)CC4)cc3)cn2c1NC(=O)NCc1ccc(Cl)cc1,688
3,CCc1nc2c(C)cc(-c3ccc(CN4CCOCC4)cc3)cn2c1NC(=O)NCc1ccc(Cl)cc1,283
4,CCc1nc2c(C)cc(-c3ccc(CN4CCN(C)CC4)cc3)cn2c1NC(=O)NCc1ccc(F)cc1,451
5,CCc1nc2c(C)cc(-c3ccc(CN4CCCC4)cc3)cn2c1NC(=O)NCc1ccc(Cl)cc1,1070
6,CCc1nc2c(C)cc(-c3ccc(C(=O)N4CCN(CC)CC4)cc3)cn2c1NC(=O)NCc1ccc(F)cc1,> 1000
7,CCc1nc2c(C)cc(-c3ccc(CN4CCCCC4)cc3)cn2c1NC(=O)NCc1ccc(Cl)cc1,647
8,CCc1nc2c(C)cc(-c3ccc(CN4CCC(O)CC4)cc3)cn2c1NC(=O)NCc1ccc(F)cc1,1.72
9,CCc1nc2c(C)cc(-c3ccc(CN4CCSCC4)cc3)cn2c1NC(=O)NCc1ccc(OC)c(Cl)c1,> 1000
10,CCc1nc2c(C)cc(-c3ccc(C(=O)N4CCCCC4)cc3)cn2c1NC(=O)NCc1ccc(F)cc1,626

# Second part, the compound after the results:
row,IC50 [nM],SMILES
1,257,CCc1nc2c(C)cc(-c3ccc(C(=O)N4CCN(C)CC4)cc3)cn2c1NC(=O)NCc1ccc(F)cc1
2,237,CCc1nc2c(C)cc(-c3ccc(CN4CCC(O)CC4)cc3)cn2c1NC(=O)NCc1ccc(Cl)cc1
3,213,CCc1nc2c(C)cc(-c3ccc(C(=O)N4CCN(C)CC4)cc3)cn2c1NC(=O)NCc1ccc(OC)c(Cl)c1
4,79.1,COc1ccc(CNC(=O)Nc2c(C)nc3c(C)cc(-c4ccc(CN5CCN(CCO)CC5)cc4)cn23)cc1Cl
5,71.7,CCc1nc2c(C)cc(-c3ccc(CN4CCOCC4)cc3)cn2c1NC(=O)NCc1ccc(OC)c(Cl)c1
6,11.7,CCc1nc2c(C)cc(-c3ccc(C(=O)N4CCC(O)CC4)cc3)cn2c1NC(=O)NCc1ccc(OC)c(Cl)c1
7,11,COc1ccc(CNC(=O)Nc2c(C)nc3c(C)cc(-c4ccc(CN5CCC(O)CC5)cc4)cn23)cc1Cl
8,9.17,CCc1nc2c(C)cc(-c3ccc(C(=O)N4CCC(O)CC4)cc3)cn2c1NC(=O)NCc1ccc(F)cc1
9,7.41,CCc1nc2c(C)cc(-c3ccc(CN4CCC(O)CC4)cc3)cn2c1NC(=O)NCc1ccc(OC)c(Cl)c1
10,5.43,CCc1nc2c(C)cc(-c3ccc(CN4CCN(CCO)CC4)cc3)cn2c1NC(=O)NCc1ccc(OC)c(Cl)c1

# System: Mus musculus
# Test: Antifibrotic activity in C57BL/6 mouse model of bleomycin-induced idiopathic pulmonary fibrosis assessed as inhibition of collagen deposition at 30-60 mg/kg, po dosed for 31 consecutive days followed by tracheal administration of bleomycin by masson's staining based histopathological analysis
# Assay type: functional, organism-based
# Details: time 31.0 day
row,SMILES,inhibition
1,CCc1nc2c(C)cc(N3CCN(CC(=O)N4CC(O)C4)CC3)cn2c1N(C)c1nc(-c2ccc(F)cc2)c(C#N)s1,Active
2,CCc1nc2c(C)cc(-c3ccc(CN4CCC(O)CC4)cc3)cn2c1NC(=O)NCc1ccc(F)cc1,Active
